How the values were obtained:
Format in all cases: biochemical
human CSF1-R (FMS) = target: T1, human CSF1-R (FMS) (Homo sapiens, UniProt P07333); experiment: Alphascreen tyrosine kinase enzyme assay, CSF-1R (FMS) kinase domain; details: read-out: FMS, FLT3, or HCK IC50_nM (FMS)
T1 construct: from codon I553 to Q961; GST (N); made in house; host or cells: Sf9 insect cells (baculovirus)
T1 sequence (P07333 553-961): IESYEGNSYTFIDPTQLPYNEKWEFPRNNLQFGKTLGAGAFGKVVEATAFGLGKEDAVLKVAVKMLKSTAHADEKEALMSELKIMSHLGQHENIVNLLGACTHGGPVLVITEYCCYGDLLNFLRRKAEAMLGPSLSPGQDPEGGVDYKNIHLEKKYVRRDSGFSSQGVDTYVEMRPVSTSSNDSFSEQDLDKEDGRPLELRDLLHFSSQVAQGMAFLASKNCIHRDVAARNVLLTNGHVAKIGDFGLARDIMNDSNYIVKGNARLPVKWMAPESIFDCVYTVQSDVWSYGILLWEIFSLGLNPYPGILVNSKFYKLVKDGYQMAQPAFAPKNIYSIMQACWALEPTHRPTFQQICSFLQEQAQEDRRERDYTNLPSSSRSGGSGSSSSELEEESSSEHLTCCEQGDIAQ
Procedure: For screening purposes, compounds (in 100% DMSO) were warmed at 37 degrees for at least 20 minutes before use. A […] stock was initially made in assay buffer, where the final concentration of DMSO was 0.3%. The stocks were then diluted in 384 well Optiplates (Packard) where the final concentration of the compound was […].
The kinase domain of human CSF1-R from codon I553 to Q961 was cloned into the pDest20 expression vector (Invitrogen). The CSF1-R plasmid was then transformed into competent DH10Bac cells (Gibco), and the recombinant baculovirus produced prepared for transfection into Sf9 insect cells.
Baculovirus preparations from each of the constructs were infected into either one or five liters of Sf9 cells (Invitrogen) grown in SF-900 medium (Invitrogen) to a cell density of approximately 1-2×10^6 cells/ml. Cells were infected with virus at a MOI of 0.8-3.0. Cells were harvested and lysed. Tyrosine kinase domains were purified by affinity chromatography on a glutathione-agarose column (Scientifix Pty. Ltd. catalog #: GSH-200).
Kinase assays were performed in 384 well Optiplates (Packard) using an Alphascreen Protein Tyrosine Kinase PY100 detection kit The compounds were pre-incubated with affinity purified PTK domain in the presence of phosphotyrosine assay buffer (10 mM HEPES, pH 7.5, 100 mM MgCl2, 25 mM NaCl, […] and 0.1% Tween 20) for 20 minutes. The compounds were then incubated with substrate in the presence of ATP. The substrate used was susbtrate-1 with the sequence biotin-EGPWLEEEEEAYGWMDF-NH2 [SEQ. ID. NO. 13] (final concentration […]). For HCK 80 μm ATP was used and incubated for 60 minutes. Alphascreen phosphotyrosine acceptor beads followed by streptavidin donor beads at a concentration of 1/100 in stop buffer were added to each well under subdued light and incubated for 2-3 hours., The Alphascreen plates were read on a Packard Fusion Alpha instrument.

BTK(h) = target: T2, BTK(h) (Homo sapiens, UniProt Q06187); experiment: Upstate KinaseProfiler enzyme assay, BTK; details: 500 nM compound; read-out: Percent inhibition at 500 nM BTK(h)
T2 construct: purchased Upstate Biotechnology (Dundee, UK), KinaseProfiler service
In short: (§1)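 First, enzymes were pre-diluted (10× working) in 20 mM MOPS, pH 7.0, supplemented with EDTA (1 mM), BSA (1 mg/ml) and glycerol (5%), plus 0.1% β-mercaptoethanol and 0.01% Brij-35. Next, they were added to the assay alongside substrates diluted in de-ionised water.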

KDR(h) = target: T3, KDR(h) (Homo sapiens, UniProt P35968); experiment: Upstate KinaseProfiler enzyme assay, KDR; details: 500 nM compound; read-out: Percent inhibition at 500 nM KDR(h)
T3 construct: purchased Upstate Biotechnology (Dundee, UK), KinaseProfiler service
In short: as §1

Blk(m) = target: T4, Blk(m) (Mus musculus, UniProt P16277); experiment: Upstate KinaseProfiler enzyme assay, Blk; details: 500 nM compound; read-out: Percent inhibition at 500 nM Blk(m)
T4 construct: purchased Upstate Biotechnology (Dundee, UK), KinaseProfiler service
In short: as §1

Bmx(h) = target: T5, Bmx(h) (Homo sapiens, UniProt P51813); experiment: Upstate KinaseProfiler enzyme assay, Bmx; details: 500 nM compound; read-out: Percent inhibition at 500 nM Bmx(h)
T5 construct: purchased Upstate Biotechnology (Dundee, UK), KinaseProfiler service
T5 sequence (P51813 1-675): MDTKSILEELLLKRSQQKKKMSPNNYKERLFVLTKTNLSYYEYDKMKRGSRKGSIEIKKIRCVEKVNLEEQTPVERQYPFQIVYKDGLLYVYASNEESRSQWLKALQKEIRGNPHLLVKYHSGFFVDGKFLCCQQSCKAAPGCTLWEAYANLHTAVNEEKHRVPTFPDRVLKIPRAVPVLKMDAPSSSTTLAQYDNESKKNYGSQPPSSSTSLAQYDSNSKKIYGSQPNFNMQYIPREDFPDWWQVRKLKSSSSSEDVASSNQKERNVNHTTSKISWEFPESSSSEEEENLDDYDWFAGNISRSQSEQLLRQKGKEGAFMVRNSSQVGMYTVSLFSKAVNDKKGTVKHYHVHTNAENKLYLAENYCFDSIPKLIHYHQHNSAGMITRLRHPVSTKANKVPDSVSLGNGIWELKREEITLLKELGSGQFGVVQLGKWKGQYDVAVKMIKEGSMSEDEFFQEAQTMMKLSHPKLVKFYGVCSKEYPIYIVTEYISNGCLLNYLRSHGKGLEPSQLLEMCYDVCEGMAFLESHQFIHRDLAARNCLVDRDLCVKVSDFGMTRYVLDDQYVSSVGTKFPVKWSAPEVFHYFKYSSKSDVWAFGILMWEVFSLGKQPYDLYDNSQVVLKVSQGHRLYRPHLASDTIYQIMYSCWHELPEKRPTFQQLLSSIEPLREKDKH
In short: as §1

Flt 1(h) = target: T6, Flt 1(h) (Homo sapiens, UniProt P17948); experiment: Upstate KinaseProfiler enzyme assay, Flt 1; details: 500 nM compound; read-out: Percent inhibition at 500 nM Flt 1(h)
T6 construct: purchased Upstate Biotechnology (Dundee, UK), KinaseProfiler service
In short: as §1

Flt 4(h) = target: T7, Flt 4(h) (Homo sapiens, UniProt P35916); experiment: Upstate KinaseProfiler enzyme assay, Flt 4; details: 500 nM compound; read-out: Percent inhibition at 500 nM Flt 4(h)
T7 construct: purchased Upstate Biotechnology (Dundee, UK), KinaseProfiler service
In short: as §1

T6 sequence (P17948 27-1338): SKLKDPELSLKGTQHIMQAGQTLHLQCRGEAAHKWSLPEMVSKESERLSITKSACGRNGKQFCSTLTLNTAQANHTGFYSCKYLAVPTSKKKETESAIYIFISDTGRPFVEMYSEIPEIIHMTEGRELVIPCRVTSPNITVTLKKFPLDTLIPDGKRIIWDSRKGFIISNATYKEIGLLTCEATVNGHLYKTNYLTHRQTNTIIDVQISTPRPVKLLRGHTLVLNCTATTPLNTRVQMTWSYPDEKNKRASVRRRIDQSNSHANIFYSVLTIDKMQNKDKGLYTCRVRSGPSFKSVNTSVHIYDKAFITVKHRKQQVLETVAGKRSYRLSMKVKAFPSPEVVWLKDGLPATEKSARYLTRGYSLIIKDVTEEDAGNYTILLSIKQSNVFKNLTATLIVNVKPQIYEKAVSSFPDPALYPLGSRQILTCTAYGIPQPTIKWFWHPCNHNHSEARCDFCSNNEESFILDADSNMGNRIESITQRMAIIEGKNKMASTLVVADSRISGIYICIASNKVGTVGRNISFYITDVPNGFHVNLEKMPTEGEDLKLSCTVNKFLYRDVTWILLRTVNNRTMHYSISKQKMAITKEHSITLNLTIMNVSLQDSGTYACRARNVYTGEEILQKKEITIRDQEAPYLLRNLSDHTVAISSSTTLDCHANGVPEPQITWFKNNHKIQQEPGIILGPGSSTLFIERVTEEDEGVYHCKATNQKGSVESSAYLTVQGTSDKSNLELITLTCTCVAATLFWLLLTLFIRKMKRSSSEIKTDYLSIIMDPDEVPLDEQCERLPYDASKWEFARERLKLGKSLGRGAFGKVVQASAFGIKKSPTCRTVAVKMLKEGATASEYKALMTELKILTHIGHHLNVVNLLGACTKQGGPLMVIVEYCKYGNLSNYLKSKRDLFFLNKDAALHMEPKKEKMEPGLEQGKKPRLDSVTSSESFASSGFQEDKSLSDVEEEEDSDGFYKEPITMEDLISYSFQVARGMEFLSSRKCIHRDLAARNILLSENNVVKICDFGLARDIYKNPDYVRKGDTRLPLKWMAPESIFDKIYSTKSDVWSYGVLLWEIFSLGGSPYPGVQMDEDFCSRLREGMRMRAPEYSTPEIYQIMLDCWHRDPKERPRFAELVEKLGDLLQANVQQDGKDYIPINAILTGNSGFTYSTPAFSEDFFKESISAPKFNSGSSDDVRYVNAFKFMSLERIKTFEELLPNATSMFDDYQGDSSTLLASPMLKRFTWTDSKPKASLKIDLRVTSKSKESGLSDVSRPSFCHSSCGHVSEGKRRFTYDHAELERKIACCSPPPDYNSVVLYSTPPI
T7 sequence (P35916 25-1363): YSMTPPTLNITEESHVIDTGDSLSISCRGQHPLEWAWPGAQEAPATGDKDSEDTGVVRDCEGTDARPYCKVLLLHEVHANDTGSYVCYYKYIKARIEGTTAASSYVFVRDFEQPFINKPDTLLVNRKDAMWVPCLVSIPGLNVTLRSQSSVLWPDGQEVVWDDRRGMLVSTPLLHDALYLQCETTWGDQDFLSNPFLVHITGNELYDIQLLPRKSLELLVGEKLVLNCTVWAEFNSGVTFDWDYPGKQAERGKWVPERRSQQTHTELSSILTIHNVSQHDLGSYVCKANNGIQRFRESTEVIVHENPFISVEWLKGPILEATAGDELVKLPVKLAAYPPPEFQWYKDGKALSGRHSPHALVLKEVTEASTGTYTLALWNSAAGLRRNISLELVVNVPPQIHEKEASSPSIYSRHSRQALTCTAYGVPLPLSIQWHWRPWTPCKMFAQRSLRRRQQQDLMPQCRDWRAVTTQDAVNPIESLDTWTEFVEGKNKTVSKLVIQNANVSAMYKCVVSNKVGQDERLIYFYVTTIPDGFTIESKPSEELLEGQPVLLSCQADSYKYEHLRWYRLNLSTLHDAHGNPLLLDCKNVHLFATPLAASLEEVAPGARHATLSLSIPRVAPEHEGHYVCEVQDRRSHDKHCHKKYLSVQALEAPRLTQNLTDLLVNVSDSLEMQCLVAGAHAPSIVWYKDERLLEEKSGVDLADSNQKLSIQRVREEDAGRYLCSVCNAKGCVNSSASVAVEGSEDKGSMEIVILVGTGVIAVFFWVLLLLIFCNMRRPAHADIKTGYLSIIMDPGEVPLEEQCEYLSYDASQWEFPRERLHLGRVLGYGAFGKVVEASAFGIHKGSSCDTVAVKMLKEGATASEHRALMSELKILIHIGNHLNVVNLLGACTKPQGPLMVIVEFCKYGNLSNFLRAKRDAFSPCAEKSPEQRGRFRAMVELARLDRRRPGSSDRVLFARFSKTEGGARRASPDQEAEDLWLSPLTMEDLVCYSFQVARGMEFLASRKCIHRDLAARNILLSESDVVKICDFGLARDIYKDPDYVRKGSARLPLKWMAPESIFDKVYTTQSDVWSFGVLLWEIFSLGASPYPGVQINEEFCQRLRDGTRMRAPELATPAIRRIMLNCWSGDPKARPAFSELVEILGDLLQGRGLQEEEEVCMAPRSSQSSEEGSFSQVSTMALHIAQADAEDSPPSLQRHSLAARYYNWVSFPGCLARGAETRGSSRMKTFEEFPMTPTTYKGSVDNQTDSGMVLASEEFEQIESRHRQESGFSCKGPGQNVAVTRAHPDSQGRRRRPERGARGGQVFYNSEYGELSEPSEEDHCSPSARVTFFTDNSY
T2 sequence (Q06187 whole entry): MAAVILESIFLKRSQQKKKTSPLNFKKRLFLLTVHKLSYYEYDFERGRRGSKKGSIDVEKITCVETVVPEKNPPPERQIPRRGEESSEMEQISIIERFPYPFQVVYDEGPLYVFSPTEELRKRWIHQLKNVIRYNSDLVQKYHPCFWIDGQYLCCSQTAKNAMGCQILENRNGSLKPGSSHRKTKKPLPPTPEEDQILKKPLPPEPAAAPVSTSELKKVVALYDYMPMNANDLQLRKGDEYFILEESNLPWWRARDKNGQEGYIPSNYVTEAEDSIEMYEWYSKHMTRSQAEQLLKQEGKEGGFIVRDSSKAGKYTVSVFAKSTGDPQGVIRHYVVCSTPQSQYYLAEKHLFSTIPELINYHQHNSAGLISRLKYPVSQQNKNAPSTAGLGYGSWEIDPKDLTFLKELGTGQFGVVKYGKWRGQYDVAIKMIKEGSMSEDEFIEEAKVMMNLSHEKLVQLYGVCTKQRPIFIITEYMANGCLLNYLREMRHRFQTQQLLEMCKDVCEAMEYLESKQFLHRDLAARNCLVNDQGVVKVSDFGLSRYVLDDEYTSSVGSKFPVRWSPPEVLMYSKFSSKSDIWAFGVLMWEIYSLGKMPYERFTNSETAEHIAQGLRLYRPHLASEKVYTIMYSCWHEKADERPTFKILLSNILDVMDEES
T4 sequence (P16277 whole entry): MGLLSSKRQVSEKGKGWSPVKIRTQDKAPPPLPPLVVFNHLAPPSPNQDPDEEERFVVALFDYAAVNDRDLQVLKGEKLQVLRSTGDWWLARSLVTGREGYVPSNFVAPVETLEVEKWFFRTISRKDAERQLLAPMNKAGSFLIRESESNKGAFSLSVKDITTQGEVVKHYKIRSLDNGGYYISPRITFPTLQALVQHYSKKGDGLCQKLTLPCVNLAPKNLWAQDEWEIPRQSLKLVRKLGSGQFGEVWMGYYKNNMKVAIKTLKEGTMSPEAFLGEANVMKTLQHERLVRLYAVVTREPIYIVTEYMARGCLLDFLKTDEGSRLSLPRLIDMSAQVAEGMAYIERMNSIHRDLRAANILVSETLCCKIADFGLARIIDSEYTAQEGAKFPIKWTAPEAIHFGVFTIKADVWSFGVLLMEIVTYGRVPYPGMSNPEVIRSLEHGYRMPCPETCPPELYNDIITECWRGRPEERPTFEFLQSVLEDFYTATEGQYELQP

Row | SMILES | IC50 (human CSF1-R (FMS)) [nM] | inhibition at 0.5 µM (BTK(h)) [%] | inhibition at 0.5 µM (KDR(h)) [%] | inhibition at 0.5 µM (Blk(m)) [%] | inhibition at 0.5 µM (Bmx(h)) [%] | inhibition at 0.5 µM (Flt 1(h)) [%] | inhibition at 0.5 µM (Flt 4(h)) [%]
1 | COc1ccc(Nc2nccc(Sc3ccc(NC(=O)CC#N)cc3)n2)cc1OC [Compound 101, 2-cyano-N-(4-(2-(3,4-dimethoxyphenylao)pyrimidin-4-ylthio)phenyl)acetamide] | < 100 |  |  |  |  |  | 
2 | C=CC(=O)Nc1ccc(Sc2nc(Nc3ccc(N4CCOCC4)cc3)ncc2C)cc1 [Compound 124, N-(4-(5-methyl-2-(4-morpholinophenylao)pyrimidin-4-ylthio)phenyl)acrylamide] | < 500 | 100 | 100 | 100 | 100 | 100 | 100
3 | C=CC(=O)Nc1ccc(Sc2nc(Nc3ccc(N4CCC(C(=O)OCC)CC4)cc3)ncc2C)cc1 [Compound 292, ethyl 1-(4-(4-(4-acrylamidophenylthio)-5-methylpyrimidin-2-ylao)phenyl)piperidine-4-carboxylate] |  | 3 | 96 | 10 | 59 | 67 | 100
4 | C=CC(=O)Nc1ccc(Sc2nc(Nc3ccc(CNS(C)(=O)=O)cc3)ncc2C)cc1 [Compound 294, N-(4-(5-methyl-2-(4-(methylsulfonamidomethyl)phenylao)pyrimidin-4-ylthio)phenyl)acrylamide] |  | 77 | 93 | 37 | 92 | 94 | 100

Source: patent US8846704B2, “Thiopyrimidine-based compounds and uses thereof” (YM Biosciences Austraila Pty Ltd, priority 2007, dated 2014)
